These results are taken from BindingDB's records for patent WO2022098809 (Merck Sharp &Amp, 2022).

pIC50: −log10 of the molar value.

Sequence of Mitogen-activated protein kinase kinase kinase kinase 1 (Q92918 whole entry): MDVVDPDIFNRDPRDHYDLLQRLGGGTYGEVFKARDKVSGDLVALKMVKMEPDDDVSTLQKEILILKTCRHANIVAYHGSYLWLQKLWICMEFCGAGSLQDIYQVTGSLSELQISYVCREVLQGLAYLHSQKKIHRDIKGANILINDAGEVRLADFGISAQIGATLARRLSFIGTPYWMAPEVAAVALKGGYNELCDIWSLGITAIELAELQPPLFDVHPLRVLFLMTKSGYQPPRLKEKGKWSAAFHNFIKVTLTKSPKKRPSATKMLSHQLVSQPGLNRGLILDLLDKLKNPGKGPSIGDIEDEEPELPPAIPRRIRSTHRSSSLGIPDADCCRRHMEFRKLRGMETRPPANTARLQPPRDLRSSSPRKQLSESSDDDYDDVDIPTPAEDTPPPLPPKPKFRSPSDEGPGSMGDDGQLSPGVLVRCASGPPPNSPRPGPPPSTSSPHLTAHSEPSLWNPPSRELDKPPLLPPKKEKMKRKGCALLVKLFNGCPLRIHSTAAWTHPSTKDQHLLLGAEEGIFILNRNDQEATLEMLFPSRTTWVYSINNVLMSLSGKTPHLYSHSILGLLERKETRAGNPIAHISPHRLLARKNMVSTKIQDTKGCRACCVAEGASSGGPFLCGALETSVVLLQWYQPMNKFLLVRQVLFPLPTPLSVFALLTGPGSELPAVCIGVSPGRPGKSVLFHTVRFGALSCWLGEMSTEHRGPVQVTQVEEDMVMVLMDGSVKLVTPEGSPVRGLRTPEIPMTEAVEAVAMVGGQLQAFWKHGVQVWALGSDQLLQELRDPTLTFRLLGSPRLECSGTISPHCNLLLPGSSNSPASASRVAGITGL

The target in this test is Mitogen-activated protein kinase kinase kinase kinase 1 (Homo sapiens, UniProt Q92918). Kind of test: HPK1-SLP76 TR-FRET ASSAY. As for the experimental part:
Compounds are serially diluted (3-fold in 100% DMSO) across a 384-well polypropylene source plated from column 3 to column 12 and column 13 to column 22, to yield 10 concentration dose responses for each test compound. Columns 1, 2, 23 and 24 contain either only DMSO or a pharmacological known control inhibitor. […] Enzyme, Substrate and Stop/Detection solutions are prepared in assay buffer. […] Kinase reaction is initiated with addition of 2.5 μL of substrate solution (ATP 10uM and SLP7610 nM Final) and allowed to proceed for 60 minutes. […] Plates are incubated at room temperature for 30 minutes. Reactions are initiated by addition of 2.5 μL of 3x substrate solution (10 nM SLP76 and 10 uM ATP FInal) using BioRaptr. Plates are incubated at room temperature for one hour.
In general terms: Time-resolved FRET reads energy transfer from a long-lived donor to a nearby acceptor.
By pIC50 is commonly meant −log10 of the IC50, conventionally taken in molar units. A high value points to a small IC50. Turning to `COc1cc2c(cc1Nc1ncc(C(N)=O)c(Nc3c(F)cccc3CC(F)F)n1)CN(C)CC2` [WO2022098809, Example 4-31], the pIC50 is 9.70.
In the case of `COc1cc2c(cc1Nc1ncc(C(N)=O)c(Nc3ccc(C)cc3C(C)(C)C)n1)CN(C)CC2` [WO2022098809, Example 4-28] it was 9.59; in that of `COc1cc2c(cc1Nc1ncc(C(N)=O)c(Nc3ccc(C)cc3C3CC3)n1)CN(C)CC2` [WO2022098809, Example 4-26], 9.77; in that of `Cc1cc(F)c(Nc2nc(Nc3cc4c(cc3F)CCN(C)C4)ncc2C(N)=O)c(C(F)(F)F)c1` [WO2022098809, Example 4-29], 9.70.
Next, `CN1CCc2cc(F)c(Nc3ncc(C(N)=O)c(Nc4c(F)ccc5c4OC(C)(C)C5)n3)cc2C1` [WO2022098809, Example 4-32]: 8.95; `CCc1cc(C)ccc1Nc1nc(Nc2cc3c(cc2OC)CCN(C)C3)ncc1C(N)=O` [WO2022098809, Example 4-27]: 10.10; `Cc1cccc(F)c1Nc1nc(Nc2c(C)nn(C)c2C)ncc1C(N)=O` [WO2022098809, Example 4-35]: 6.80.
